Test system: rumen microbiota
Assay: Gas Production Test, in vitro rumen fermentation model (Example 1)
Assay type: cell-based
Conditions: for lag period of cumulative gas production: buffered rumen fluid, 39° C.; for part still unused by the rumen microbes after 24 hours: based on the cumulative gas production profiles; for cumulative gas production after 72 hours (comparison): isonitrogenous, 72 hours in vitro incubation, against blank and other NPN sources
Experimental: The in vitro model used to simulate rumen digestion and utilization of the products is the Gas Production Test protocol, adapted for protein digestibility, as described in more detail in the following paragraph.
Approximately 1 liter of rumen fluid was collected from two different rumen-fistulated animals in the morning. Rumen fluid was strained through a cheesecloth, kept at 39° C. under CO2 and then diluted 1:19 with a nitrogen-free buffer and mineral solution containing 10.03 g NaHCO3, 1.43 g Na2HPO4, 1.55 g KH2PO4, 0.15 g MgSO4·7H2O, 0.52 g Na2S, 0.017 g CaCl2·2H2O, 0.015 g MnCl2·4H2O, 0.002 g […], 0.012 g FeCl3·6H2O and 0.125 mg resazurin per liter.
To ensure the rumen fluid was depleted of free nitrogen and to ensure nitrogen would be the limiting factor for the microbial growth at the start of the experiment, the buffered rumen fluid was pre-incubated for 4 hours at 39° C. with a carbohydrate overload of glucose, xylose and soluble starch, each at 3.33 g/l. During this pre-incubation, all nitrogen available in the rumen fluid would be incorporated into bacterial protein and other bacterial nitrogen-containing components.
Each product was weighed into different glass bottles on an isonitrogenous base, providing 15 mg N per flask. Then, 60 ml of the pre-incubated buffered rumen fluid was added, under continuous flushing with CO2. Flasks were closed with rubber stoppers and placed in a shaking water bath with 50 movements per minute at 39° C. to start the incubation period. The gas production of each flask was recorded continuously for 72 hours using a fully automated system. All test products including a blank (i.e. no product added to the flask of rumen fluid) were tested in one run in triplicate.
The cumulative gas production was measured continuously for 72 hours.

[1] = 15 mg N per flask, 72 hours incubation

SMILES	time after which gas production stopped / maximum cumulative gas production (end level) was reached [1]	lag period of cumulative gas production [1]	part still unused by the rumen microbes after 24 hours	time of highest (peak) gas production [1]	gas production rate from 20 to 50 hours (20 to 50 hours of incubation)	cumulative gas production after 72 hours (comparison)
NC(=O)NC(N)=O [Biuret]	40 h	approximately 5 hours	approximately 60%	–	–	–
NC(=O)NC(=O)NC(N)=O [Triuret]	60 h	9 h	approximately 60%	20 h	approximately 4 ml/hour	–
Nc1nc(=O)[nH]c(=O)[nH]1 [ammelide, Ammelide]	–	–	–	–	–	not significantly different
O=c1[nH]c(=O)[nH]c(=O)[nH]1 [cyanuric acid, Cyanuric acid]	–	–	–	–	–	not significantly different

From patent publication US20250161245A1, “A MIXTURE OF UREA, BIURET AND N-CONTAINING BY-PRODUCTS CREATED DURING BIURET PRODUCTION AS A DIETARY NON-PROTEIN NITROGEN-SOURCE FOR RUMINANTS AND USES THEREOF” (Yara International ASA, priority 2022, published 2025)
